Assay results: PMC4067310, “From Pan-Reactive KV7 Channel Opener to Subtype Selective Opener/Inhibitor by Addition of a Methyl Group” (PLoS ONE, 2014)
Values joined by “and” are separate entries in the source; they are usually repeats but may differ in a detail not shown here. Identical values can stand only once.

Legend:
KV7.4 = biological target: T1, KV7.4 (Homo sapiens, UniProt P56696); experiment: Two-electrode voltage-clamp of KV7.4 expressed in Xenopus laevis oocytes; type: cell-based
T1 construct: expressed in transfected cells; host or cells: Xenopus laevis oocytes injected with cRNA (pGEM-HE vector)
T1 sequence (P56696 1-695): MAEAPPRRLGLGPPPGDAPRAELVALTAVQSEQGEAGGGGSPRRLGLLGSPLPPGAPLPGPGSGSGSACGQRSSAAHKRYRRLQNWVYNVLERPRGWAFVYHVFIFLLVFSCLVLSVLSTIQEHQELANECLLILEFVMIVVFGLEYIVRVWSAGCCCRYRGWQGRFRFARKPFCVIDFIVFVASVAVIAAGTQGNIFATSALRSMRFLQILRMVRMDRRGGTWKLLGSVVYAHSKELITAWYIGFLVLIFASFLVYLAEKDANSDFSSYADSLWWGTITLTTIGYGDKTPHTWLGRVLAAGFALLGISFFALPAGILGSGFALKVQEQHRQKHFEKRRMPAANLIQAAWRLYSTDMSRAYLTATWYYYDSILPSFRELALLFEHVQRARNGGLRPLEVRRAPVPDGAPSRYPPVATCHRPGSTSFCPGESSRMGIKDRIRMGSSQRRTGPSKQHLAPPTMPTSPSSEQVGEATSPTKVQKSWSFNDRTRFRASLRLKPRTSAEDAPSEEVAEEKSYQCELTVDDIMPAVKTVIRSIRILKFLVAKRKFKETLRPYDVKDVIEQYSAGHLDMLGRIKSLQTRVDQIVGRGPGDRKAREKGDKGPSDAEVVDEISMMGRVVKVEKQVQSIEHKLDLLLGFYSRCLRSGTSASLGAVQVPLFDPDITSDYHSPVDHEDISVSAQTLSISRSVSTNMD
Method: (§1) Point mutations were introduced using mutated oligonucleotide extension (PfuTurbo Polymerase, Stratagene, La Jolla, CA, USA) from a plasmid template harboring the cDNA of interest, digested with DpnI (Fermentas, St. Leon-Roth, Germany) and transformed into E.coli XL1 Blue cells. The construct was verified by complete DNA sequencing of the cDNA insert. cRNA was prepared from linearized human wild-type (WT) and mutant KV7 channels in the pGEM-HE vector using the T7 m-Message Machine kit (Ambion, Austin, TX, USA) according to the manufacturer's instructions.
(§2) Extraction of Xenopus laevis oocytes and injection of cRNA was performed as described previously. Oocytes were kept in Modified Barth's Saline (in mM: 88 NaCl, 1 KCl, 2.4 NaHCO3, 0.41 CaCl2, 0.82 MgSO4, 0.3 Ca(NO3)2, 15 HEPES, pH 7.4 supplemented with 100 U/mL penicillin and 100 µg/mL streptomycin) at 18°C, and currents were recorded after 2-7 days. The care of Xenopus laevis and the oocyte extraction procedure were performed according to national guidelines and approved by the Danish Animal Experiments Inspectorate.
(§3) KV7 currents in Xenopus laevis oocytes were recorded using two-electrode voltage-clamp at room temperature in Ringer buffer (in mM: 115 NaCl, 2.5 KCl, 1.8 CaCl2, 0.1 MgCl2, 10 HEPES, pH 7.4) as described previously. Data was acquired using pCLAMP 10.2 software (Molecular Devices, CA, USA) and analyzed using pCLAMP 10.2 and GraphPad Prism 4.0 (GraphPad Software Inc., CA, USA). Currents were elicited from a holding potential of −80 mV by 5 s steps to potentials between −100 and +50 mV in 10 mV increments, followed by a 2 s step to −120 mV.
(§4) SMB-1 was dissolved in dimethyl sulfoxide (DMSO) to obtain a concentrated stock solution. On the day of experiments the stock solution was thawed and diluted in Ringer buffer to the final concentrations. A concentration of 10 µM SMB-1 was used unless indicated otherwise. The final DMSO concentration never exceeded 0.1%.
(§5) Current – voltage (I–V) relationship curves were generated by normalizing the steady-state peak current measured at potentials between −100 and +50 mV to the current measured at +50 mV in control recordings and plotting the values against the test potential.
(§6) The voltage-dependence of activation was determined from tail current analysis using the current measured immediately after the transient capacitive current after stepping to −120 mV from potentials between −100 mV and +50 mV. Data was normalized to extend from 0–1 and the tail current-voltage relationship was fitted to the Boltzmann equation: [drawing 1] (Equation\;1) where I max is the maximum tail current, I min is the minimum tail current, V0.5 is the potential for half maximal activation and k is the slope factor. A V0.5 was calculated for each individual experiment and statistical significance was estimated by paired two-tailed Student's t-test.
Activation kinetics for KV7.4 and KV7.4-W242L was determined by fitting the traces recorded at potentials between −30 and +50 mV to a single exponential function: [drawing 3] (Equation\;3) where I(t) is the current at time t, I 0 is the peak current and τ is the activation time constant.
(§7) For investigation of deactivation kinetics the tail current traces recorded at −120 mV when stepping from the channels' respective ∼V0.5 were fitted to a single exponential function (Eq. 3).
(§8) Dose-response curves from electrophysiological experiments were made by plotting the increase in steady state current at +50 mV expressed in percentages as a function of drug concentration. The data were then analyzed by non-linear regression and fitted to the equation for sigmoidal dose-response with variable slope: [drawing 4] (Equation\;4) where R1 is the initial response, R2 is the maximum response, X is the logarithm of the drug concentration and nH is the slope (Hill coefficient) of the curve.

KV7.2 = biological target: T2, KV7.2 (Homo sapiens, UniProt O43526); experiment: Two-electrode voltage-clamp of KV7.2 expressed in Xenopus laevis oocytes; type: cell-based
T2 construct: expressed in transfected cells; host or cells: Xenopus laevis oocytes injected with cRNA (pGEM-HE vector)
T2 sequence (O43526 whole entry): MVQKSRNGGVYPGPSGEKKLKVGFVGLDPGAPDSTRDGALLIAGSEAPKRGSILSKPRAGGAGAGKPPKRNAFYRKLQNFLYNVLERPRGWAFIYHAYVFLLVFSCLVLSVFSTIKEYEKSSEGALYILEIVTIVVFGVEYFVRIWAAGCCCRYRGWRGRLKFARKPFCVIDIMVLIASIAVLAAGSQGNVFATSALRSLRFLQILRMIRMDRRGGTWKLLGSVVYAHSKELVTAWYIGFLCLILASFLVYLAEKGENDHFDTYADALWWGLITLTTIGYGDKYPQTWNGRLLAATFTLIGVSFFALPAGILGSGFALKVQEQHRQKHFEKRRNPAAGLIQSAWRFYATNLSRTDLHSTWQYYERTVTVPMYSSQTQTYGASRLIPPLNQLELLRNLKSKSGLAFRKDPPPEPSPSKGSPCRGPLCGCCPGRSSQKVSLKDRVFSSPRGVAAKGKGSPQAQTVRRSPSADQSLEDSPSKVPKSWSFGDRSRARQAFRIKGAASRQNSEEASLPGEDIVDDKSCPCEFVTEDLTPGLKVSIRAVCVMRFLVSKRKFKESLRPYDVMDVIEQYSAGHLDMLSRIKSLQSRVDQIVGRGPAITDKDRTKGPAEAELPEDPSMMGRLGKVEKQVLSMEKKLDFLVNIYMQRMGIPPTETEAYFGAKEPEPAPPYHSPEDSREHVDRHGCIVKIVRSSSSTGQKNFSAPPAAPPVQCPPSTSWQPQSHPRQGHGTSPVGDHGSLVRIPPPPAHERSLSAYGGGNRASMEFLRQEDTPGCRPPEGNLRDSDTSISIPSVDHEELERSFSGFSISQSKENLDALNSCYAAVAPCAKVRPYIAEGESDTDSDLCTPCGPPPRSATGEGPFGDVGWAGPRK
Method: as §1, §2, §3, §4, §5, §6
Activation kinetics for KV7.2 and KV7.2-W236L was determined by fitting the traces recorded at potentials between −40 and +40 mV to a double exponential function: [drawing 2] (Equation\;2) where I(t) is the current at time t, Ifast and Islow are the current amplitudes at infinite times, and τfast and τslow are the time constants of the fast and slow components, respectively.
as §7, §8

[1] = Visual inspection of solution in Ringer buffer for precipitation; type: physicochemical
Method: as §4
To determine the potency of SMB-1 on KV7.2 the compound was tested at four concentrations (0.4, 2, 10 and 50 µM). […] The current amplitude in percentage of control at +50 mV was plotted against the logarithm of the concentration.

C[C@@H](c1ccc2c(c1)N(CC1CC1)CCO2)N(C)C(=O)/C=C/c1ccccc1F [SMB-1, (E)-N-[(S)-1-(4-Cyclopropylmethyl-3,4-dihydro-2H-1,4-benzoxazin-6-yl)-ethyl]-3-(2-fluoro-phenyl)-N-methyl-acrylamide]
current amplitude, % of control at 10 µM (KV7.4; 10 µM SMB-1, +50 mV, n = 8): 184 ± 12.4%
effect on τact (KV7.4; 10 µM, at all potentials tested): significantly increased
τdeact, deactivation time constant in presence of compound (KV7.4; 10 µM, control 10.3±0.6 ms, n = 8, p<0.001): 16.4 ± 1.2 ms
V0.5, voltage-dependence of activation in presence of compound (KV7.4; 10 µM, control −0.2±3.6 mV, n = 8, p = 0.59): −1.4±3.4 mV
Emax (KV7.4; +50 mV, n = 5, read-out: maximal efficacy): 213 ± 33.1%
EC50 (KV7.4; increase in steady state current at +50 mV, n = 5): 5.7 µM
effect on τact_fast (KV7.2; 10 µM): did not affect
remaining activity at 10 µM (KV7.2; 10 µM SMB-1, +50 mV, n = 9, read-out: current amplitude, % of control): 81.7 ± 3.1%
effect on τact_slow (KV7.2; 10 µM, at −20 mV and above): increased
τdeact, deactivation time constant in presence of compound (KV7.2; 10 µM, control 20.2±1.4 ms, n = 7, p<0.001): 37.3 ± 3.3 ms
V0.5, voltage-dependence of activation in presence of compound (KV7.2; 10 µM, control −22.5±2.2 mV, n = 8, p<0.05): -18.0±2.7 mV
IC50 (KV7.2; current amplitude at +50 mV, 0.4, 2, 10 and 50 µM, n = 5): ~7.4 µM and 7.4 µM
concentration above which the drug precipitated [1]: above 50 µM
